In publication PMC10191356, “Target-agnostic drug prediction integrated with medical record analysis uncovers differential associations of statins with increased survival in COVID-19 patients” (PLOS Computational Biology, 2023):
pIC50: −log10 of the molar value.

How the values were obtained:
[1] = tested on: SARS-CoV-2 (WA-1 strain); assay: SARS-CoV-2 WT infection of Vero6 cells (CellTiter-Glo); type: cell-based; conditions: MOI 0.01, 3 days, mean of two independent experiments; for pIC50: Severe acute respiratory syndrome coronavirus 2, 72 h, relative IC50, WT virus; for Max Inhibition (%): WT virus
[2] = tested on: COVID-19 patients; assay: Retrospective electronic health record analysis of mortality (Cerner Real World Data COVID-19), propensity score matched; type: in vivo, human; conditions: for Mortality, N (%): cohort before propensity score matching, moderate-intensity statin dose; for Mortality rate, treated patients / No. died/No. treated, treated patients: statin at moderate dose, COVID-19 patients; for reduction in the RR: treated vs matched untreated controls
Procedure: Data from the Cerner Real World Data COVID-19 deidentified EHR database containing records of 490,373 patients with a diagnosis of COVID-19 or COVID-19 exposure across 87 health care centers were analyzed. The following statins were included: atorvastatin, fluvastatin, lovastatin, pitavastatin, pravastatin, rosuvastatin, and simvastatin. Primary outcome was death after the onset of COVID-19. Inclusion criteria, considered comorbidities, and statistical analysis are detailed in the Methods in S1 Text.
Encounters include laboratory and pharmacy information (e.g., medication orders, dispensing), which are date and time stamped. Only patients with COVID-19 diagnosis confirmed by a laboratory test for SARS-CoV-2 (nucleic acid amplification tests and immunoassays) and/or by International Statistical Classification of Diseases and Related Health Problems, Tenth Revision (ICD-10) code U07.1 (for COVID-19 confirmed by laboratory testing),^1 with known demographic characteristics (age, sex, and race and ethnicity), and who were 18 years or older from January to September 2020 were included in our study (n = 90,834). Patients with COVID-19, with a statin medication dose consistent with moderate-intensity therapy,^2 and with a medication order status of active or completed and without a designation of as needed (ie, medication taken only when needed) at least once within a period of 10 days before and 7 days after their first recorded COVID-19 diagnosis were compared with patients with COVID-19 and no statin orders.
Considered comorbidities, identified by using International Classification of Diseases, Ninth Revision, Clinical Modification (ICD-9-CM), and International Statistical Classification of Diseases, Tenth Revision, Clinical Modification (ICD-10-CM), diagnosis codes, included hypertension (I10-I16 and 401.X-405.X), diabetes (O24, E11, E10, E13, and 250.X), chronic obstructive pulmonary disease (J44, 491.2, 493.2, and 496.X), obesity (E66.0, E66.1, E66.2, E66.8, E66.9, 278.00, 278.01, 278.03, Z68.3, Z68.4, V85.3, and V85.4), heart conditions (I20.X, I21.X, I22.X, I23.X, I24.X, I25.X, I42.X, I50.X, 410.X, 411.X, 412.X, 413.X, 414.X, 428.X, and 425.X), cerebrovascular disease (I6X.X, G45.X, G46.X, and 43X.X), cancer (C00-C96, 14X.X, 15X.X, 16X.X, 17X.X, 18X.X, 19X.X, and 20X.X), and chronic kidney disease (N18.X and 585.X). Prescription indications, identified by using ICD-9-CM and ICD-10-CM codes, included high cholesterol/hyperlipidemia (E78.0, E78.1, E78.2, E78.3, E78.4, E78.5, 272, 277). Body mass index (calculated as weight in kilograms divided by height in meters squared) values were identified by Logical Observation Identifiers Names and Codes 39156-5 and 89270-3. Body mass index values of at least 30 were used to confirm the diagnosis of obesity by ICD-9-CM or ICD-10-CM code. The mean dose prescribed for statins-treated patients was calculated for each statin. […] For patients receiving pravastatin, the mean (SD) dose was 48.25 (16.21) mg/d.
The R Matchit package, version 3.0.2 (R Program for Statistical Computing) was used to perform propensity score matching with a nearest-neighbor method to match patients treated with a statin with control patients (1:1 ratio), atorvastatin-treated patients with control patients (1:1 ratio), lovastatin-treated patients with control patients (1:10 ratio), pravastatin-treated patients with control patients (1:10 ratio), rosuvastatin-treated patients with control patients (1:10 ratio), and simvastatin-treated patients with control patients (1:5 ratio), with varying ratios for the different statins to have sufficient power for the comparisons and increase precision. […]

[3] = in vitro; conditions: African green monkey
[4] = cited from earlier work
[5] = tested on: SARS-CoV-2 GFP; assay: microbe, parasite or virus in culture; type: cell-based; conditions: for Max Inhibition (%) / pIC50: mean of two independent experiments; for pIC50: Severe acute respiratory syndrome coronavirus 2, 48 h, relative IC50
[6] = tested on: Vero E6 (Vero6) cells; conditions: uninfected Vero6 cells; mean of two independent experiments
[7] = cited from earlier work; remark: listed apart in the source
[8] = cited from earlier work; remark: listed apart in the source
[9] = tested on: SARS-CoV-2; set-up: method as in earlier work; conditions: VeroE6 cells; cited from earlier work
[10] = tested on: HCoV-OC43; assay: HCoV-OC43 infection of HUVECs, viral load; type: cell-based, human coronavirus OC43; conditions: HUVEC cells, 1 or 5 μM
Procedure: (§1) To measure the impact of selected drugs on HCoV-OC43 infection, 96-well plates seeded with human umbilical vein endothelial cells (HUVECs) were infected with HCoV-OC43 and treated with drugs (Methods in S1 Text). Viral load, Hoechst fluorescence, and IP-10 measurements were measured and normalized to vehicle control samples for each assay. Each group was compared to vehicle controls using the Brown-Forsythe and Welch ANOVA tests and corrected for multiple comparisons using a Dunnett T3 test.
(§2) To measure the impact of selected drugs on HCoV-OC43 infection, 96-well plates seeded with Human Umbilical Vein Endothelial Cells (HUVEC) were infected with HCoV-OC43 and treated with drugs. Uninfected and vehicle treated cells (0.1% DMSO) are included as controls. HUVEC plates were pre-dosed with drugs overnight at 34°C at indicated concentrations (100 µl/well). The following day, HCoV-OC43 was added to the wells (100 µl/well) at an MOI of 0.2 and incubated for 3 h at 34°C. […] After five PBS washes, Hoechst fluorescence was read at 355 nm excitation and 450 nm emission using a Synergy H1 Spectrophotometer. Subsequently, viral load was analyzed using the ImmPACT DAB Peroxidase (HRP) Substrate kit (Vector Labs) according to the manufacturer’s instructions, and DAB absorbance was read at 465 nm.

[11] = tested on: SARS-CoV-2; assay: Preliminary in vivo study in SARS-CoV-2-infected mice
[12] = tested on: IP-10; assay: IP-10 production in OC43-infected HUVECs; type: cell-based, human; conditions: 1 or 5 μM
Procedure: as §1, §2

[13] = tested on: SARS-CoV-2; assay: Preliminary in vivo study in SARS-CoV-2-infected hamsters

## CC(C)c1c(C(=O)Nc2ccccc2)c(-c2ccccc2)c(-c2ccc(F)cc2)n1CC[C@@H](O)C[C@@H](O)CC(=O)O [atorvastatin]
[1]
  pIC50: 5.72
  Max Inhibition (%): 24.4%
[2]
  Mortality, N (%): 431 (16.1) %
  Mortality rate, treated patients: 16.1%
  No. died/No. treated, treated patients: 431/2676
  reduction in the RR: 14%

## CC(C)n1c(/C=C/C(O)CC(O)CC(=O)O)c(-c2ccc(F)cc2)c2ccccc21 (centres unmarked) [fluvastatin]
[3]
  CC50: 10.6 µM
[4]
  Active metabolites: No
  Bioavailability (%): 19 to 29%
  Elimination half-life: 0.5 to 2.3 h
  Metabolism: CYP2C9
[5]
  Max Inhibition (%): 19%
[6]
  Max Toxicity (%): 80.4%
[7]
  Protein binding (%): >99%
[8]
  Solubility: Lipophilic

## CC(C)c1nc(N(C)S(C)(=O)=O)nc(-c2ccc(F)cc2)c1/C=C/[C@@H](O)C[C@@H](O)CC(=O)O [rosuvastatin]
[4]
  Active metabolites: No
  Clearance: Hepatic and renal
  Metabolism: Non-CYP450 Limited CYP2C9/8
[9]
  effects on SARS-CoV-2 replication: inhibitory effects
[8]
  Solubility: Hydrophilic
[2]
  Mortality, N (%): 53 (13.1) %
  Mortality rate, treated patients: 13.1%
  No. died/No. treated, treated patients: 53/404
  reduction in the RR: 41%

## CC[C@H](C)C(=O)O[C@H]1C[C@@H](C)C=C2C=C[C@H](C)[C@H](CC[C@@H]3C[C@@H](O)CC(=O)O3)[C@H]21 [lovastatin]
[3]
  CC50: 16.9 µM
[4]
  Active metabolites: Yes
  Clearance: Hepatic
  Elimination half-life: 2.9 h
  Metabolism: CYP3A4
[5]
  pIC50: 5.11
  Max Inhibition (%): 55.8%
[6]
  Max Toxicity (%): 74.2%
[7]
  Protein binding (%): >95%
[8]
  Solubility: Lipophilic
[2]
  Mortality, N (%): 15 (21.4) %
  Mortality rate, treated patients: 21.4%
  No. died/No. treated, treated patients: 15/70

## CCC(C)(C)C(=O)O[C@H]1C[C@@H](C)C=C2C=C[C@H](C)[C@H](CC[C@@H](O)C[C@@H](O)CC(=O)O)[C@H]21 [simvastatin hydroxy acid]
[5]
  inhibition of SARS-CoV-2 infection relative to pro-drug form of simvastatin: much weaker inhibition

## CC[C@H](C)C(=O)O[C@H]1C[C@H](O)C=C2C=C[C@H](C)[C@H](CC[C@@H](O)C[C@@H](O)CC(=O)O)[C@H]21 [pravastatin]
[4]
  Active metabolites: No
  Bioavailability (%): 18%
  Clearance: Hepatic and renal
  Elimination half-life: 1.3 to 2.8 h
  Metabolism: Non-CYP450
[5]
  Max Inhibition (%): 21.7%
[6]
  Max Toxicity (%): 4%
[7]
  Protein binding (%): 43 to 55%
[8]
  Solubility: Hydrophilic
[2]
  Mortality, N (%): 71 (18.5) %
  Mortality rate, treated patients: 18.5%
  No. died/No. treated, treated patients: 71/383
[2]; treated vs propensity score matched untreated controls, iteration with the least significant result
  Relative risk of death (95% CI): 0.78 (0.61–1.00)

## CCC(C)(C)C(=O)O[C@H]1C[C@@H](C)C=C2C=C[C@H](C)[C@H](CC[C@@H]3C[C@@H](O)CC(=O)O3)[C@H]21 [simvastatin]
[10]
  OC43 infection (viral load): inhibits
[3]
  CC50: 6.5 µM
[4]
  Clearance: Hepatic
  Elimination half-life: 2 to 3 h
[5]
  pIC50: 6.10
  Max Inhibition (%): 93.7%
[6]
  Max Toxicity (%): 78.5%
[7]
  Protein binding (%): 94 to 98%
[11]; SARS-CoV-2-infected mice, very preliminary
  effect on infection and host response: no effect
[11]; mice, compared with in vitro IC50
  plasma levels: greater than the IC50
[12]
  cytokine (IP-10) production: potently reduced
[13]; SARS-CoV-2-infected hamsters, very preliminary
  effect on infection and host response: no effect
[13]; hamsters, compared with in vitro IC50
  plasma levels: greater than the IC50
[2]
  Mortality, N (%): 153 (19.5) %
  Mortality rate, treated patients: 19.5%
  No. died/No. treated, treated patients: 153/784
  reduction in the RR: 17%

## O=C(O)C[C@H](O)C[C@H](O)/C=C/c1c(C2CC2)nc2ccccc2c1-c1ccc(F)cc1 [pitavastatin]
[1]
  pIC50: 5.80
  Max Inhibition (%): 19.1%
[3]
  CC50: 0.3 µM
[4]
  Active metabolites: Yes
  Bioavailability (%): 51%
  Clearance: Hepatic
  Elimination half-life: 12 h
  Metabolism: Non-CYP450 Limited CYP2C9/19
[6]
  Max Toxicity (%): 83.6%
[7]
  Protein binding (%): 99%
[8]
  Solubility: Lipophilic
[2]
  Mortality, N (%): 4 (30.8) %
